Molecules are shown by their SMILES. Like-named read-outs stand apart in the source and are kept apart here.

A short description of data set [1]: Acute toxicity in mice, intravenous and oral (LD50). Format: in vivo. Particulars: mouse, in vivo. From the text: The acute toxicities of the compounds according to the invention have been determined CD 1 mice (Charles RIVER) by intravenous and oral methods. The LD50 calculated by the quantal cumulative method of J. J. Reed and H. Muench (Amer. J. Hyg. 1938, 27, 493) are collected in the following Table: […]

Data set [2] relates to abdominal spasms caused in mice by 2-phenyl-1,4-benzoquinone. Description: Analgesic activity: abdominal spasms caused by intraperitoneal 2-phenyl-1,4-benzoquinone (P.B.Q.). The data set is classed as in vivo. The note with it: for ED50: Mus musculus, mice, oral, read-out: Analgesic activity P.B.Q. AD 50; for analgesic activity (in words): given orally to mice. From the text: The analgesic activities have been investigated with respect to abdominal spasms caused in mice by the intraperitoneal injection of 2-phenyl-1,4-benzoquinone according to E. Siegmund, E. Cadmus and G. Lu, Proc. Soc. exp. Biol. Med., 1957, 95, 729-731. The central antiserotonin properties have been determined by the "Head-twitch" technique in mice according to S. J. Corne, R. W. Pickering and B. T. Warner, Brit. J. Pharmacol., 1963, 20, 106-120. In this test, the antiserotonin products inhibit the sudden shaking of the head induced in mice by 5-hydroxy-tryptophan, the biological precursor of serotonin.

Data set [3] relates to serotonin (shaking of the head induced by 5-hydroxy-tryptophan). Description: Central antiserotonin activity: Head-twitch induced by 5-hydroxy-tryptophan. Format: in vivo, mice. The note with it: for ED50: Mus musculus, mice, oral, read-out: Antiserotonin activity Head-twitch AD 50; for central antiserotonin activity (in words): given orally to mice. From the text:
The analgesic activities have been investigated with respect to abdominal spasms caused in mice by the intraperitoneal injection of 2-phenyl-1,4-benzoquinone according to E. Siegmund, E. Cadmus and G. Lu, Proc. Soc. exp. […] The central antiserotonin properties have been determined by the "Head-twitch" technique in mice according to S. J. Corne, R. W. Pickering and B. T. Warner, Brit. […] In this test, the antiserotonin products inhibit the sudden shaking of the head induced in mice by 5-hydroxy-tryptophan, the biological precursor of serotonin.

In data set [4] the test system is isolated duodenum of rabbit, contractions caused by acetylcholine. The data set is described as follows: Spasmolytic activity, neurotrope versus acetylcholine, isolated duodenum (Magnus). From the text: (§1) The spasmolytic activities are known by means of the technique of R. Magnus (Arch. Ges. Physiol., 1904, 102, 123) on the isolated duodenum of rabbits. The spasmolytic neurotropes inhibit the contractions of the organ caused by acetylcholine, while the musculotropes prevent the spasms induced by barium chloride. The EC 50 expressed in mg/litre are collected in the following Table where EC denotes "Effective concentration".

Data set [5] deals with isolated duodenum of rabbit, spasms induced by barium chloride. The data set is described as follows: Spasmolytic activity, musculotrope versus BaCl2, isolated duodenum (Magnus).
Text: as §1

A further data set concerns isolated rabbit heart. The data set is described as follows: Coronaro-dilatatory activity, isolated heart (Langendorff modified by Anderson). The note with it: for coronaro-dilatatory activity (in words): isolated rabbit heart. The text has this: The technique of Langendorff, modified by F. E. Anderson, (J. Pharmacol. exp. Therap., 1948, 91, 135) using isolated rabbit heart permits the coronaro-dilatatory activity of the products to be studied. In this text, the cardiac perfusion liquid contains 0.5 UI/1 of posthypophysis. The results are expressed in the percentage variation of the coronary flow after affusion of the product to be tested, compared with the initial flow.

The next data set deals with glycemia. The data set is described as follows: Hypoglycemiant activity, variation of glycemia after 4 days of daily oral treatment. The data set is classed as in vivo, male CD rats (Charles RIVER). The note with it: rat. Here is the method:
The hypoglycemiant properties have been studied on the male CD rats (Charles RIVER) weighing 200 to 250 g, in which the glycemia is controlled before treatment and then after 4 days of daily oral treatment. The seric glucose is determined by the method of W. S. Hoffmann (J. Biol. Chem., 1937, 120, 51). Groups of 10 rats are used and the hypoglycemiant activity is expressed by the percentage variation of the average glycemia of the treated animals with respect to that of the controls. If it is necessary, the statistical significance of the difference is determined by the test of the coefficient "t" of Student.

[6] abbreviates: intravenous, read-out: Acute toxicity to mice LD 50, intravenous.
[7] abbreviates: oral, read-out: Acute toxicity to mice LD 50, orally.

Regarding `CCN(CC)CCNc1nc(N(C)c2ccccc2)nc(Cl)c1SC` [Example 2, 2-N-methyl-N-phenylamino-4-(2'-diethylamino)-ethylamino-5-methylthio-6-chloro-pyrimidine], the LD50 in data set [1] (setting [6]) was found to be 43 mg/kg; in data set [1] (setting [7]), 225 mg/kg. Besides, the figures for the ED50 in data set [2] and in data set [3] were above 100 mg/kg and 95 mg/kg, respectively. In addition, in data set [3], the “central antiserotonin activity (in words)” value is recorded as “central antiserotonine”. The “Spasmolytic activity EC 50, neurotrope versus acetylcholine” value in data set [4] amounted to 1.50 µg/mL. Further, the “Spasmolytic activity EC 50, musculotrope versus BaCl2” value in data set [5] amounted to 0.80 µg/mL. Moreover, the “Increase of the coronary flow” value in the data set with isolated rabbit heart (dose 0.01 mg) was determined as 56%; in the data set on isolated rabbit heart (dose 0.03 mg) it was 58%; in the data set with isolated rabbit heart (dose 0.10 mg), 64%; with isolated rabbit heart (dose 0.30 mg), 91%. Moreover, the “coronaro-dilatatory activity (in words)” value in the data set with isolated rabbit heart is “interesting coronaro-dilatatory activities”.

On to `CCN(CC)CCNc1nc(N(CC)CC)nc(Cl)c1SC` [Example 3, 2-diethylamino-4-(2'-diethylamino)-ethyl-amino-5-methylthio-6-chloro-pyrimidine], for which the LD50 in data set [1] (setting [6]) was found to be 64 mg/kg; in data set [1] (setting [7]), 225 mg/kg. For the same molecule, the ED50 in data set [2] was above 100 mg/kg; in data set [3] it was 35 mg/kg. Also, in data set [3], the “central antiserotonin activity (in words)” value was “central antiserotonine”. Also, the “Spasmolytic activity EC 50, neurotrope versus acetylcholine” value in data set [4] was 1.30 µg/mL. In addition, in data set [5], the “Spasmolytic activity EC 50, musculotrope versus BaCl2” value turned out to be 0.30 µg/mL.

On to `CCN(CC)CCNc1nc(N(C)c2ccc(Cl)cc2)nc(Cl)c1SC` [Example 6, 2-N-methyl-2-N-(4-chloro-phenyl)amino-4-(2'-diethylamino)-ethylamino-5-methylthio-6-chloro-pyrimidine], for which the LD50 in data set [1] (setting [7]) came to 610 mg/kg. Also, in data set [3], the ED50 is 65 mg/kg and the “central antiserotonin activity (in words)” value was “central antiserotonine”. Moreover, in the data set on glycemia, the “hypoglycemiant properties (in words)” value is given as “strong hypoglycemiant properties”.

In the case of `CSc1c(Cl)nc(N(C)c2ccccc2)nc1NCCN(C)C` [Example 7, 2-N-methyl-N-phenyl-amino-4-(2'-dimethyl-amino)-ethylamino-5-methylthio-6-chloro-pyrimidine], the figures for the LD50 in data set [1] (setting [6]) and in data set [1] (setting [7]) were 80 mg/kg and 200 mg/kg, respectively. Also, the ED50 in data set [2] was 60 mg/kg. The “analgesic activity (in words)” value in data set [2] is “marked analgesic activity”. Further, the “Spasmolytic activity EC 50, neurotrope versus acetylcholine” value in data set [4] stood at 1.20 µg/mL. Further, the “Spasmolytic activity EC 50, musculotrope versus BaCl2” value in data set [5] was found to be 0.16 µg/mL. In addition, the “Increase of the coronary flow” value was 38% in the data set on isolated rabbit heart (dose 0.003 mg), 40% in the data set with isolated rabbit heart (dose 0.01 mg), 37% in the data set on isolated rabbit heart (dose 0.03 mg) and 77% with isolated rabbit heart (dose 0.10 mg). In addition, the “coronaro-dilatatory activity (in words)” value in the data set with isolated rabbit heart is on record as “interesting coronaro-dilatatory activities”.

On to `CSc1c(Cl)nc(N(C)c2ccccc2)nc1NCCN(C(C)C)C(C)C` [Example 12, 2-N-methyl-N-phenylamino-4-(2'-di-isopropyl-amino)-ethylamino-5-methylthio-6-chloro-pyrimidine], for which the LD50 in data set [1] (setting [7]) came out at 600 mg/kg. Moreover, the ED50 in data set [2] came to 100 mg/kg. Besides, the “hypoglycemiant properties (in words)” value with glycemia is given as “strong hypoglycemiant properties”.

Turning to `CSc1c(Cl)nc(N2CCCCC2)nc1NCCN(C(C)C)C(C)C` [Example 13, 2-piperidino-4-(2'-diisopropylamino)-ethylamino-5-methylthio-6-chloro-pyrimidine], in data set [1] (setting [7]), the LD50 is above 900 mg/kg. For the same molecule, the ED50 in data set [3] worked out at 185 mg/kg. Besides, the “hypoglycemiant properties (in words)” value in the data set with glycemia was “strong hypoglycemiant properties”.

Consider `CSc1c(Cl)nc(N(C)c2ccc(C)cc2)nc1NCCN(C(C)C)C(C)C` [Example 14, 2-N-methyl-N(4-methyl-phenyl)amino-4-(2'-diisopropylamino)-ethylamino-5-methylthio-6-chloro-pyrimidine], for which the LD50 in data set [1] (setting [6]) is 92 mg/kg. Moreover, the LD50 in data set [1] (setting [7]) worked out at 900 mg/kg. For the same molecule, in data set [4], the “Spasmolytic activity EC 50, neurotrope versus acetylcholine” value was 0.08 µg/mL and the “neurotropic spasmolytic activity (in words)” value is listed as “necessary to call attention”. Besides, in data set [5], the “Spasmolytic activity EC 50, musculotrope versus BaCl2” value is 0.04 µg/mL; the “musculotropic EC 50” value is given as “less than 0.1 mg/liter”; the “musculotropic spasmolytic activity (in words)” value is “quite remarkable activities”. Moreover, the “Increase of the coronary flow” value with isolated rabbit heart (dose 0.003 mg) is 104%. The “Increase of the coronary flow” value with isolated rabbit heart (dose 0.01 mg) turned out to be 140%. The “Increase of the coronary flow” value in the data set on isolated rabbit heart (dose 0.03 mg) was determined as 168%. In the data set with isolated rabbit heart, the “coronaro-dilatatory activity (in words)” value is given as “interesting coronaro-dilatatory activities”.

Regarding `CCN(CC)c1nc(Cl)c(SC)c(NCCN(C(C)C)C(C)C)n1` [Example 16, 2-diethylamino-4-(2'-diisopropylamino)-ethylamino-5-methylthio-6-chloro-pyrimidine], the LD50 in data set [1] (setting [7]) amounted to 600 mg/kg. For the same molecule, the ED50 was found to be 70 mg/kg in data set [2] and 90 mg/kg in data set [3]. In addition, the “analgesic activity (in words)” value in data set [2] is recorded as “marked analgesic activity”. In data set [3], the “central antiserotonin activity (in words)” value is on record as “central antiserotonine”. Further, the “Spasmolytic activity EC 50, musculotrope versus BaCl2” value in data set [5] is 0.30 µg/mL. Also, the “Increase of the coronary flow” value came out at 16% with isolated rabbit heart (dose 0.003 mg) and 52% in the data set on isolated rabbit heart (dose 0.01 mg). Also, the “coronaro-dilatatory activity (in words)” value with isolated rabbit heart is given as “interesting coronaro-dilatatory activities”.

In the case of `CSc1c(Cl)nc(N(C)c2cccc(C(F)(F)F)c2)nc1NCCN(C(C)C)C(C)C` [Example 17, 2-N-methyl-N(3-trifluoromethyl-phenyl)-amino-4-(2'-diisopropylamino)-ethylamino-5-methylthio-6-chloro-pyrimidine], the LD50 in data set [1] (setting [7]) is above 900 mg/kg. Also, the ED50 in data set [3] was 400 mg/kg. Besides, the “Spasmolytic activity EC 50, musculotrope versus BaCl2” value in data set [5] was 0.50 µg/mL. Further, in the data set with glycemia, the “hypoglycemiant properties (in words)” value is given as “strong hypoglycemiant properties”.

On to `COc1nc(N(C)c2ccccc2)nc(NCCN(C(C)C)C(C)C)c1SC` [Example 24, 2-N-methyl-N,phenylamino-4-(2'-diisopropylamino)-ethylamino-5-methyl-thio-6-methoxy-pyrimidine], for which the LD50 in data set [1] (setting [6]) was determined as 22 mg/kg; in data set [1] (setting [7]), 600 mg/kg. Besides, in data set [4], the “Spasmolytic activity EC 50, neurotrope versus acetylcholine” value is 0.12 µg/mL. The “neurotropic spasmolytic activity (in words)” value in data set [4] is “necessary to call attention”. For the same molecule, in data set [5], the “Spasmolytic activity EC 50, musculotrope versus BaCl2” value was found to be 0.13 µg/mL. The “Increase of the coronary flow” value is on record as 26% with isolated rabbit heart (dose 0.003 mg), 32% with isolated rabbit heart (dose 0.01 mg), 58% in the data set with isolated rabbit heart (dose 0.03 mg) and 67% in the data set with isolated rabbit heart (dose 0.10 mg). Besides, in the data set with isolated rabbit heart, the “coronaro-dilatatory activity (in words)” value is “interesting coronaro-dilatatory activities”. Also, the “hypoglycemiant properties (in words)” value in the data set with glycemia is listed as “strong hypoglycemiant properties”.

Regarding `COc1nc(N(C)c2ccccc2)nc(NCCN(C)C)c1SC` [Example 26, 2-N-methyl-N-phenyl-amino-4-(2'-dimethylamino)-ethylamino-5-methylthio-6-methoxy-pyrimidine], the LD50 was 70 mg/kg in data set [1] (setting [6]) and 225 mg/kg in data set [1] (setting [7]). For the same molecule, the ED50 in data set [2] is 65 mg/kg.

With `COc1nc(N(C)Cc2ccccc2)nc(NCCN(C(C)C)C(C)C)c1SC` [Example 27, 2-N-methyl-N-benzyl-amino-4-(2'-diiso-propyl-amino)-ethylamino-5-methyl-thio-6-methoxy-pyrimidine], the LD50 in data set [1] (setting [6]) was 18.5 mg/kg. Also, the LD50 in data set [1] (setting [7]) is 600 mg/kg. Besides, in data set [2], the ED50 was determined as 95 mg/kg and the “analgesic activity (in words)” value is on record as “marked analgesic activity”. In addition, in data set [5], the “Spasmolytic activity EC 50, musculotrope versus BaCl2” value was 0.08 µg/mL; the “musculotropic EC 50” value is recorded as “less than 0.1 mg/liter”; the “musculotropic spasmolytic activity (in words)” value was “quite remarkable activities”.

The record behind these values is patent publication US3968214A, “5-Methylthio-pyrimidine vasodilators” (Produits Chimiques Ugine Kuhlmann, priority 1973, dated 1976).
